Assay results from US8476408B2, “Unacylated ghrelin and analogs as therapeutic agents for vascular remodeling in diabetic patients and treatment of cardiovascular disease” (Alize Pharma SAS, priority 2008, dated 2013).
Values belong to the substance of their own block, whether it stands above or below them. Where no end group is shown, it is not given here. The star is where a group is joined. Octanoyl = CCCCCCCC(=O)*

Key:
[1] = system: cardiomyocytes; details: Ref. 8; cited from earlier work
[2] = system: CAC; test: Detection of ROS in CAC (DCF-DA assay, FACS); type: cell-based, human; details: for baseline level of ROS production: compared to untreated cells, FIG. 1B, 1E
Protocol: Peripheral-blood mononuclear cells (PB-MNC) isolated by Fycoll Histopaque 1077 (Sigma) were resuspended in 20% FBS 199 Medium and plated on fibronectin-coated dishes (Biocoat, Becton Dickinson Labware) as described by Hill et al. (Ref. 19). Human UAG studies were performed on CAC recovered from normal donors and diabetic patients. The purity of sorted cells was assessed by FACS analysis (Ref. 20). For experiments, the isolated CAC were cultured under 5% CO2 at 37° C. for 4 days on 20 μg/ml fibronectin-coated dishes in EGM-2 medium containing 10% FBS, hydrocortisone, human Fibroblast Growth Factor, Vascular Endothelial Growth Factor, Insulin Growth Factor 1, ascorbic acid, human Epidermal Growth Factor, gentamicin and amphotericin-B (Cambrex, Walkersville, Md., USA) alone or in combination with 1 μM UAG and 1.2 mg/ml AGE. In selected experiments, isolated CAC were cultured in EBM-2 medium (Cambrex, Walkersville, Md., USA) supplemented with 10 ng/ml of IL-3. FACS was used to analyze their phenotype (anti-CD45, anti-CD31, anti-CD105, anti-CD14 antibodies were used) (Ref. 22).
Detection of ROS—DCF-DA (0.5 μM final concentration) was added to CAC in the indicated culture conditions. At the indicated times, the cells were subjected to FACS analysis and processed as previously described (Ret. 22). H2O2 was used as positive control.

[3] = system: human arteries; details: Ref. 35; cited from earlier work
[4] = system: human microvascular endothelial cells (HMVECs); details: Ref. 4; cited from earlier work
[5] = system: human umbilical vein endothelial cells (HUVECs); details: Ref. 5; cited from earlier work
[6] = system: CAC; test: CAC mobilization assay in healthy subjects and diabetic patients; type: in vivo, human; details: diabetic patients compared to normal subjects, 6 hours treatment; FIG. 3B
Protocol: All the subjects underwent the following testing session: • UAG (3.0 μg/kg/h iv. as infusion for 12 h from 0 to 12 hours); • isotonic saline (infusion from 0 to 12 hours).
All tests were performed starting at 08.30-09.00 a.m. after overnight fasting, 30 minutes after an indwelling catheter had been placed into a forearm vein by slow infusion of isotonic saline. Blood samples were taken at 0 h, 6 h and 12 h.
Mobilization assay—CAC recovered from healthy subjects and diabetic patients, treated with UAG or saline for 6 h and 12 h, were evaluated. Total number of MNC was counted by 3 independent investigators. The percentage of CAC was calculated by comparing CAC obtained from diabetic patients and healthy donors, treated for 6 h and 12 h with UAG, AG or saline, to CAC recovered at time 0.

[7] = system: HIT-T15 β-cells; test: Survival of cytokine-treated HIT-T15 β-cells (MTT); type: cell-based; details: cytokines (IFN-γ/TNF-α/IL-1β), peptides 1 nM to 100 nM
Protocol: The survival effect of UAG (6-13) (SEQ ID NO: 6), UAG (8-13) (SEQ ID NO: 7), UAG (8-12) (SEQ ID NO: 8), UAG (8-11) (SEQ ID NO: 12), UAG (9-12) (SEQ ID NO: 9) and UAG (9-11) (SEQ ID NO: 10) was assessed in cytokine-treated HIT-T15 β-cells. […] The protective effects of peptides UAG (8-13) (SEQ ID NO: 7) and UAG (8-12) (SEQ ID NO: 8) were found similar to those of UAG (1-14) (SEQ ID NO: 2) and UAG (1-18) (SEQ ID NO: 3). A peptide made of the inverse sequence of UAG (1-14) (SEQ ID NO: 2) and named UAG (14-1) (SEQ ID NO: 11), was used as negative control for these experiments. […] These effects were however lower than those of UAG (6-13) (SEQ ID NO: 6).

[8] = system: CAC membranes; test: Competition binding with [125I-Tyr4]-UAG on CAC membranes; set-up: species or system human; details: 100 nM unlabelled competitor, radioligand 0.25 nM; FIG. 5A
Excerpt: The specific binding of [^125I-Tyr^4]-UAG (calculated as difference between binding in the absence, control, and in the presence of UAG) represented about 75% of the control value (P<0.001) and was detected either on fresh (0.25 and 0.26 fmol) or frozen-thawed (0.20 and 0.33 fmol) CAC membranes from two different cell preparations.

[9] = system: cloned cells; details: cited from earlier work
[10] = system: GH secretion; details: compared with Ghrelin-28; cited from earlier work

Substance: AG: 28 amino acid peptide with an n-octanoyl modification on the Ser3 residue; endogenous ligand of GHSR (GSS(Octanoyl)FLSPEHQRVQQRKESKKPPAKLQPR; listed as Homo sapiens) [reference compound]
- experimentally-induced cell death [1]: inhibit experimentally-induced cell death
- baseline level of ROS production [2]: A protective effect failed to be detected
- vasodilator action [3]: vasodilator actions
- cell proliferation, migration, in vitro angiogenesis and ERK2 phosphorylation [4]: significantly increased cell proliferation, migration, in vitro angiogenesis and ERK2 phosphorylation
- basal and TNF-α-induced chemotactic cytokine production and mononuclear cell adhesion [5]: inhibit basal and TNF-α-induced chemotactic cytokine production and mononuclear cell adhesion
- number of recovered CAC [6]: No statistical differences

Substance: EHQRVQ [UAG (8-13)]
- survival effect on cytokine-induced cell death [7]: significant protective effect at all the concentrations examined

Substance: GSSFLSPEHQRVQQ [UAG (1-14)]
- survival effect on cytokine-induced cell death [7]: similar

Substance: GSSFLSPEHQRVQQRKES [UAG (1-18)]
- survival effect on cytokine-induced cell death [7]: similar

Substance: Glu-His-Gln-Arg-Val (EHQRV; listed as Homo sapiens) [UAG (8-12)]
- survival effect on cytokine-induced cell death [7]: significant, although reduced protection, only at 10 nM and 100 nM

- inhibition of binding of [125I-Tyr4]-UAG to CAC membranes [8]: inhibited
Substance: Ser-Pro-Glu-His-Gln-Arg-Val-Gln (SPEHQRVQ; not fully specified (C-terminus); printed as Ser-Pro-Glu-His-Gln-Arg-Val-Gln; listed as Homo sapiens) [UAG (6-13)]
- survival effect on cytokine-induced cell death [7]: potently inhibited cytokine-induced cell death
- level of ROS production in AGE-cultured cells ([2]; AGE-cultured CAC, FIG. 1C, 1F): reduced
- baseline level of ROS production [2]: also reduces the baseline level of ROS production

Substance: UAG (8-11): fragment of unacylated ghrelin, residues 8 to 11 of SEQ ID NO: 1 (EHQR; listed as Homo sapiens)
- survival effect on cytokine-induced cell death [7]: significant survival effect only at 100 nM

Substance: UAG (9-11): fragment of unacylated ghrelin, residues 9 to 11 of SEQ ID NO: 1 (HQR)
- survival effect on cytokine-induced cell death [7]: no significant effect at both concentrations tested

Substance: UAG (9-12): fragment of unacylated ghrelin, residues 9 to 12 of SEQ ID NO: 1 (HQRV; listed as Homo sapiens)
- survival effect on cytokine-induced cell death [7]: significantly increased cell survival at both the concentrations tested

Substance: des Gln-14 Ghrelin: isoform of ghrelin-28, a 27 amino acid peptide possessing serine 3 modification by n-octanoic acid (GSS(Octanoyl)FLSPEHQRVQRKESKKPPAKLQPR; listed as Homo sapiens)
- Ca2+ fluxes [9]: elicits Ca^2+ fluxes in cloned cells
- GH secretion [10]: induces GH secretion with similar potency as Ghrelin-28
